The term IC50 denotes the concentration that inhibits the measured activity by half. Read a high IC50 as weaker potency.

For the assay, the target named is T1, mouse ENT-1 transporter (Mus musculus, UniProt Q9JIM1).
T1 construct: expressed in transfected cells
T1 sequence (Q9JIM1 1-460): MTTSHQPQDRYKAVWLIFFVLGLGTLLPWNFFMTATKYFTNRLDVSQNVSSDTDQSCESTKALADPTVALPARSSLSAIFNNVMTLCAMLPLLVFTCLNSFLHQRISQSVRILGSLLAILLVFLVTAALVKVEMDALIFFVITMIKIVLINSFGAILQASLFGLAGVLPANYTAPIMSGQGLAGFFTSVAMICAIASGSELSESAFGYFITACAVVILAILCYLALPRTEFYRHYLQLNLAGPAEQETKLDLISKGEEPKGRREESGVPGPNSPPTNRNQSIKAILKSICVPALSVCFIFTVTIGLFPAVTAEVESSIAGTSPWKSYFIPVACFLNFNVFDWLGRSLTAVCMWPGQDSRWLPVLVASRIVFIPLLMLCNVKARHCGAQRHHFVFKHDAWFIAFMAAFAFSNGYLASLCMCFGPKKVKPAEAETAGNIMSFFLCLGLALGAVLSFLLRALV
The assay is described as follows: Measure of adenosine transport activity (ENT1 adenosine uptake inhibition). Type of assay: cell-based. Particulars: stable cells expressing mouse ENT-1, [2,8-3H]-adenosine 6 nM, 20 min. As to the method:
To measure adenosine transport activity of ENT-1 mammalian cells, stable cells expressing the mouse ENT-1 transporter were plated on day 1 in 96-well culture plates at the density of 60,000 cells/well, in complete DMEM/F12 medium supplemented with glutamax, 10% FBS and 10 μg/ml puromycin. On day 2, the medium was aspirated and the cells were washed twice with uptake buffer (10 mM Hepes-Tris, pH 7.4 containing 150 mM NaCl, 1 mM CaCl2), 2.5 mM KCl, 2.5 mM MgSO4, 10 mM D-glucose) (UB). For inhibition experiments, cells were then incubated at RT with various concentrations of compounds with 1% DMSO final. Non-specific uptake was defined in the presence of 10 μM S-(4-Nitrobenzyl)-6-thioinosine (NBTI, Sigma Cat #N2255).
The plates were then incubated for 20 min with gentle shaking and the reaction was stopped by aspiration of the mixture and washing (three times) with ice-cold UB. The cells were lysed by the addition of scintillation liquid, shaken 3 hours and the radioactivity in the cells was estimated using a microplates scintillation counter (TopCount NXT, Packard).
In turn, “3,3-dimethyl-6-(2-methylpyrimidin-5-yl)-1-(1-(2,2,2-trifluoroethyl)-1H-pyrazol-3-yl)indolin-2-one [Example 139]” returned an IC50 of 140 nM.
For “5-(3,3-dimethyl-1-(5-methylpyrimidin-2-yl)-2-oxoindolin-6-yl)-2-methylpyrimidine 1-oxide [Example 101]”, half-maximal inhibition (IC50) was put at 2400 nM.
Then `Cc1ncc(-c2ccc3c(c2)N(c2ccc(C)[n+]([O-])n2)C(=O)C3(C)C)cn1` (single isomer, unassigned) [Example 106, 3-(3,3-dimethyl-6-(2-methylpyrimidin-5-yl)-2-oxoindolin-1-yl)-6-methylpyridazine 1-oxide], with 481 nM; and `Cc1ncc(-c2ccc3c(c2)N(c2cccnc2)C(=O)C3(C)C)cn1` [Example 3, 3,3-Dimethyl-6-(2-methylpyrimidin-5-yl)-1-(pyridin-3-yl)indolin-2-one], with 1780 nM; and `Cc1ncc(-c2ccc3c(c2)N(c2cc(C)n(C)n2)C(=O)C3(C)C)cn1` [Example 5, 1-(1,5-Dimethyl-1H-pyrazol-3-yl)-3,3-dimethyl-6-(2-methylpyrimidin-5-yl)indolin-2-one], with 1050 nM.
`Cc1cc(N2C(=O)C(C)(C)c3ccc(-c4cnc(C)nc4)cc32)ccn1` [Example 6, 3,3-Dimethyl-1-(2-methylpyridin-4-yl)-6-(2-methylpyrimidin-5-yl)indolin-2-one] gave an IC50 of 2130 nM. Against the preceding compound, the IC50 is about 2-fold higher.
For the compound `Cc1cc(N2C(=O)C(C)(C)c3ccc(-c4cnc(C)nc4)cc32)ncn1` [Example 7, 3,3-Dimethyl-1-(6-methylpyrimidin-4-yl)-6-(2-methylpyrimidin-5-yl)indolin-2-one], the IC50 stood at 1540 nM.
Then `Cc1ncc(-c2ccc3c(c2)N(c2cncnc2)C(=O)C3(C)C)cn1` [Example 8, 3,3-Dimethyl-6-(2-methylpyrimidin-5-yl)-1-(pyrimidin-5-yl)indolin-2-one], with 3890 nM; and `Cc1ccc(-c2ccc3c(c2)N(c2cn(C)cn2)C(=O)C3(C)C)cn1` [Example 10, 3,3-Dimethyl-1-(1-methyl-1H-imidazol-4-yl)-6-(6-methylpyridin-3-yl)indolin-2-one], with 5880 nM; and `Cc1cc(-c2ccc3c(c2)N(c2cn(C)cn2)C(=O)C3(C)C)ccn1` [Example 11, 3,3-Dimethyl-1-(1-methyl-1H-imidazol-4-yl)-6-(2-methylpyridin-4-yl)indolin-2-one], with 7030 nM.
Then `Cc1ccc(N2C(=O)C(C)(C)c3ccc(-c4cnc(C)nc4)cc32)cn1` [Example 12, 3,3-Dimethyl-1-(6-methylpyridin-3-yl)-6-(2-methylpyrimidin-5-yl)indolin-2-one], with 148 nM.
In turn, `Cc1ccc(-c2ccc3c(c2)N(c2ccn(C)n2)C(=O)C3(C)C)cn1` [Example 13, 3,3-Dimethyl-1-(1-methyl-1H-pyrazol-3-yl)-6-(6-methylpyridin-3-yl)indolin-2-one] came in with an IC50 of 1150 nM.
`Cc1ccc(-c2ccc3c(c2)N(c2ccnc(C)c2)C(=O)C3(C)C)cn1` [Example 19, 3,3-Dimethyl-6-(6-methylpyridin-3-yl)-1-(2-methylpyridin-4-yl)indolin-2-one] showed a half-maximal inhibitory concentration (IC50) of 3450 nM. This IC50 is about 3-fold higher than that of the compound before.
Regarding `Cc1cc(-c2ccc3c(c2)N(c2ccnc(C)c2)C(=O)C3(C)C)ccn1` [Example 20, 3,3-Dimethyl-1,6-bis(2-methylpyridin-4-yl)indolin-2-one], the IC50 was 5670 nM.
In turn, `Cc1cc(N2C(=O)C(C)(C)c3ccc(-n4cnc(C5CC5)c4)cc32)ccn1` [Example 21, 6-(4-Cyclopropylimidazol-1-yl)-3,3-dimethyl-1-(2-methyl-4-pyridyl)indolin-2-one] returned a half-inhibitory concentration (IC50) of 4020 nM.
As for `Cc1cc(N2C(=O)C(C)(C)c3ccc(-c4cnccc4F)cc32)ccn1` [Example 24, 6-(4-Fluoropyridin-3-yl)-3,3-dimethyl-1-(2-methylpyridin-4-yl)indolin-2-one], the concentration for half-maximal inhibition (IC50) came out at 8790 nM.
For the compound `Cc1ncc(-c2ccc3c(c2)N(c2ccc(C)s2)C(=O)C3(C)C)cn1` [Example 27, 3,3-Dimethyl-6-(2-methylpyrimidin-5-yl)-1-(5-methylthiophen-2-yl)indolin-2-one], the half-inhibitory concentration (IC50) worked out at 355 nM.
For `Cc1ncc(-c2ccc3c(c2)N(c2ccc(C#N)nc2)C(=O)C3(C)C)cn1` [Example 30, 5-(3,3-Dimethyl-6-(2-methylpyrimidin-5-yl)-2-oxoindolin-1-yl)picolinonitrile], the 50% inhibitory concentration (IC50) worked out at 2140 nM. This IC50 lies about 6-fold higher than the previous one.
Compound `Cc1ncc(-c2ccc3c(c2)N(c2ccc(CO)nc2)C(=O)C3(C)C)cn1` [Example 31, 1-(6-(Hydroxymethyl)pyridin-3-yl)-3,3-dimethyl-6-(2-methylpyrimidin-5-yl)indolin-2-one] gave an IC50 of 168 nM.
The same measure for `Cc1ncc(-c2ccc3c(c2)N(c2ccc(C4CC4)nc2)C(=O)C3(C)C)cn1` [Example 32, 1-(6-Cyclopropylpyridin-3-yl)-3,3-dimethyl-6-(2-methylpyrimidin-5-yl)indolin-2-one]: 59 nM; for `Cc1ccc(N2C(=O)C(C)(C)c3ccc(-n4cnc(C(C)C)c4)cc32)cn1` [Example 33, 6-(4-Isopropylimidazol-1-yl)-3,3-dimethyl-1-(6-methyl-3-pyridyl)indolin-2-one]: 1220 nM; for `Cc1cc(N2C(=O)C(C)(C)c3ccc(-n4cnc(C(C)C)c4)cc32)ccn1` [Example 36, 6-(4-Isopropylimidazol-1-yl)-3,3-dimethyl-1-(2-methyl-4-pyridyl)indolin-2-one]: 2460 nM.
In turn, `Cc1ncc(N2C(=O)C(C)(C)c3ccc(-n4cnc(C(C)C)c4)cc32)cn1` [Example 38, 6-(4-Isopropylimidazol-1-yl)-3,3-dimethyl-1-(2-methylpyrimidin-5-yl)indolin-2-one] yielded an IC50 of 426 nM.
Turning to `Cc1ncc(-c2ccc3c(c2)N(c2ccccn2)C(=O)C3(C)C)cn1` [Example 44, 3,3-Dimethyl-6-(2-methylpyrimidin-5-yl)-1-(pyridin-2-yl)indolin-2-one], the concentration for half-maximal inhibition (IC50) worked out at 1400 nM.
On to `Cc1ncc(-c2ccc3c(c2)N(c2ccncc2F)C(=O)C3(C)C)cn1` [Example 46, 1-(3-Fluoropyridin-4-yl)-3,3-dimethyl-6-(2-methylpyrimidin-5-yl)indolin-2-one], for which the IC50 turned out to be 3530 nM.
Then `Cc1ncc(-c2ccc3c(c2)N(c2cc(F)ncc2C)C(=O)C3(C)C)cn1` [Example 47, 1-(2-Fluoro-5-methylpyridin-4-yl)-3,3-dimethyl-6-(2-methylpyrimidin-5-yl)indolin-2-one], with 7190 nM.
Then `Cc1ncc(-c2ccc3c(c2)N(c2nnc(C)o2)C(=O)C3(C)C)cn1` [Example 51, 3,3-Dimethyl-1-(5-methyl-1,3,4-oxadiazol-2-yl)-6-(2-methylpyrimidin-5-yl)indolin-2-one], with 1850 nM.
In turn, `Cc1ncc(-c2ccc3c(c2)N(c2ccncc2Cl)C(=O)C3(C)C)cn1` [Example 52, 1-(3-Chloropyridin-4-yl)-3,3-dimethyl-6-(2-methylpyrimidin-5-yl)indolin-2-one] yielded an IC50 of 6960 nM.
In turn, `Cc1ncc(-c2ccc3c(c2)N(c2cc[nH]n2)C(=O)C3(C)C)cn1` [Example 55, 3,3-Dimethyl-6-(2-methylpyrimidin-5-yl)-1-(1H-pyrazol-3-yl)indolin-2-one] gave a half-inhibitory concentration (IC50) of 2410 nM.
`Cc1ccc(N2C(=O)C(C)(C)c3ccc(-c4cnc(C)nc4)cc32)nc1` [Example 56, 3,3-Dimethyl-1-(5-methylpyridin-2-yl)-6-(2-methylpyrimidin-5-yl)indolin-2-one]: the midpoint of inhibition, the IC50, lay at 316 nM.

Values taken from patent US20230391778A1, “INDOLIN-2-ONE OR PYRROLO -PYRIDIN -2 -ONE DERIVATIVES” (Hoffmann-La Roche Inc., priority 2014, published 2023).
